US20250144205A1, “COMPOSITIONS AND METHODS FOR TREATING INFECTIOUS DISEASES” (priority 2022, published 2025)

Tested on: TSE-induced lung injury (TSE-LI)
Assay: chronic tobacco smoke exposure induced lung injury (TSE-LI) in wild-type mice
Assay type: in vivo
Description: Recombinant full-length U5a protein (U5a^FL), extracellular domain of U5a^FL (U5a^ECD) and U5a^ECD-specific monoclonal antibody (U5a^mAb, the 17C9 1 anti-U5a antibody comprising the sequences of SEQ ID NOs. 204 and 211) mitigated chronic TS exposure (TSE) induced lung injury (TSE-LI) in wild-type (WT) mice. WT mice were kept in ambient AIR or exposed to tobacco smoke (TSE) for 4 h/day 5 days a week. After 16 weeks, WT mice with TSE-LI were left untreated (None) or treated with 2.5 mg/kg of U5a^FL, U5a^ECD and U5amAb 5 days a week for 4 weeks by IP injection. Total lung RNA were analyzed for MUC5AC (M5Ac) (FIG. 12A), FOXA2 (FIG. 12B) and surfactant protein-C(SP-C) (FIG. 12C) mRNA by qPCR. Lung sections of mice treated as in FIG. 12A were subjected to IHC analysis for M5Ac (FIG. 12D). We found increased expression of U5a in AECs and ATII cells in lungs of patients with COPD and mice with TSE-LI. […] In addition, increased surfactant protein-C(SP-C) indicates improved survival of ATII cells, which is otherwise reduced due to increased TSE-induced senescence and apoptosis of ATII cells seen in mice with TSE-LI left untreated.

U5a^ECD: extracellular domain of U5a^FL; ECD of UNC5A given as SEQ ID NO: 103
MUC5AC (M5Ac) expression (lung mRNA by qPCR, IHC) (WT mice with TSE-LI, 2.5 mg/kg IP 5 days a week for 4 weeks, FIG. 12A, 12D): significantly inhibits
FOXA2 mRNA (qPCR) (WT mice with TSE-LI, 2.5 mg/kg IP 5 days a week for 4 weeks, FIG. 12B): inducing
surfactant protein-C (SP-C) mRNA (qPCR) (WT mice with TSE-LI, 2.5 mg/kg IP 5 days a week for 4 weeks, FIG. 12C): increased
chronic TS exposure (TSE) induced lung injury (TSE-LI) (WT mice, 2.5 mg/kg IP 5 days a week for 4 weeks after 16 weeks TSE): mitigated
